Experimental data: ChEMBL document CHEMBL5303573, “Mapping human microbiome drug metabolism by gut bacteria and their genes” (Nature, 2019)

Assays:
[1] = The drug is tested on Salmonella typhimurium strain: LT2 for biotransformation. The drug concentrations were measured before and after a 12-h incubation by liquid-chromatography-coupled mass spectrometry (LC–MS); details: salmonella enterica subsp. enterica, 2 µM
[2] = clostridioides difficile, 12 h, 2 µM
Description: The drug is tested on Clostridium difficile strain: 120 for biotransformation. The drug concentrations were measured before and after a 12-h incubation by liquid-chromatography-coupled mass spectrometry (LC–MS)

[3] = The drug is tested on Providencia alcalifaciens strain: DSM30120 for biotransformation. The drug concentrations were measured before and after a 12-h incubation by liquid-chromatography-coupled mass spectrometry (LC–MS); details: 2 µM
[4] = The drug is tested on Bacteroides fragilis strain: T(B)9 for biotransformation. The drug concentrations were measured before and after a 12-h incubation by liquid-chromatography-coupled mass spectrometry (LC–MS); details: 2 µM
[5] = biological target: T1, Acyltransferase 3 domain-containing protein (Phocaeicola dorei, UniProt B6W2J3); assay: (§1) The drug is tested on Bacteroides dorei strain: DSM17855 for biotransformation. The drug concentrations were measured before and after a 12-h incubation by liquid-chromatography-coupled mass spectrometry (LC–MS); assay type: ADME; design: dose 2 uM; details: 2 µM
T1 sequence (B6W2J3 whole entry): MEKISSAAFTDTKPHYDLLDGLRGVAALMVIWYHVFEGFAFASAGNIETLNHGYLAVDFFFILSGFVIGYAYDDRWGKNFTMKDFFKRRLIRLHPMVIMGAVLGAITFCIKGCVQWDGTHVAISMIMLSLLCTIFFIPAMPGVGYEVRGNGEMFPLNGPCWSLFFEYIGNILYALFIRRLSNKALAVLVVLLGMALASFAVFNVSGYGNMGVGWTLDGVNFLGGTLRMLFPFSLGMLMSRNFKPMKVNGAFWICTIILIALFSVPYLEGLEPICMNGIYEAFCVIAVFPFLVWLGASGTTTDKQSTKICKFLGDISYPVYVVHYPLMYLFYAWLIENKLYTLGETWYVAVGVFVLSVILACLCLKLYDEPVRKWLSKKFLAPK

[6] = biological target: T2, SGNH hydrolase-type esterase domain-containing protein (Phocaeicola dorei, UniProt B6W293); assay: as §1; assay type: ADME; design: dose 2 uM; details: 2 µM
T2 sequence (B6W293 whole entry): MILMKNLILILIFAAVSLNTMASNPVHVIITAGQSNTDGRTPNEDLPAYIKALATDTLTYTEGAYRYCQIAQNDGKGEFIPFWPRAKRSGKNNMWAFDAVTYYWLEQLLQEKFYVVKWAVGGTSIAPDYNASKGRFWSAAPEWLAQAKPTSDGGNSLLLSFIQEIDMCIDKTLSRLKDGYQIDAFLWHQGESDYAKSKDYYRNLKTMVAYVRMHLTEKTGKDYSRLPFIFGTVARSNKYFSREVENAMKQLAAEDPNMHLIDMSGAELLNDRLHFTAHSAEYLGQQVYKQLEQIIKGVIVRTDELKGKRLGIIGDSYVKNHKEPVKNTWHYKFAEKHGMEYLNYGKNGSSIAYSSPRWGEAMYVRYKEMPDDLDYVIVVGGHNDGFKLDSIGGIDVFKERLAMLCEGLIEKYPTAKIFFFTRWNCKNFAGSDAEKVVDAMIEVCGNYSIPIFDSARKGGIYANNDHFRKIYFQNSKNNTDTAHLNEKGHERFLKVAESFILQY

[7] = biological target: T3, SGNH hydrolase-type esterase domain-containing protein (Phocaeicola dorei, UniProt B6VTE7); assay: as §1; assay type: ADME; design: dose 2 uM; details: 2 µM
T3 sequence (B6VTE7 whole entry): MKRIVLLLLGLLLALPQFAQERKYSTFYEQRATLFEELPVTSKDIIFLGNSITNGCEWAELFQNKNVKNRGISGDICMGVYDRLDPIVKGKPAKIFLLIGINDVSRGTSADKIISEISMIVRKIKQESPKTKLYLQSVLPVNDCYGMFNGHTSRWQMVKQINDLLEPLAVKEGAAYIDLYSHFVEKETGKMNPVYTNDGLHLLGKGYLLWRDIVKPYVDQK

[8] = biological target: T4, Nitroreductase domain-containing protein (Phocaeicola dorei, UniProt B6W3P3); assay: as §1; assay type: ADME; design: dose 2 uM; details: 2 µM
T4 sequence (B6W3P3 whole entry): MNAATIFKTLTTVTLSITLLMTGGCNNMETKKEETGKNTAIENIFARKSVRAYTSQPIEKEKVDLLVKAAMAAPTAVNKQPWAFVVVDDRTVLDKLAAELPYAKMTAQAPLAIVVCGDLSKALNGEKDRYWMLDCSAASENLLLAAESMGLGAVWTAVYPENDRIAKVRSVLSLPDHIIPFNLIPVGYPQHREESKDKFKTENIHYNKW

Esterase = biological target: T5, Esterase (Phocaeicola dorei, UniProt B6W2J6); assay: as §1; assay type: ADME; design: dose 2 uM; details: 2 µM
T5 sequence (B6W2J6 whole entry): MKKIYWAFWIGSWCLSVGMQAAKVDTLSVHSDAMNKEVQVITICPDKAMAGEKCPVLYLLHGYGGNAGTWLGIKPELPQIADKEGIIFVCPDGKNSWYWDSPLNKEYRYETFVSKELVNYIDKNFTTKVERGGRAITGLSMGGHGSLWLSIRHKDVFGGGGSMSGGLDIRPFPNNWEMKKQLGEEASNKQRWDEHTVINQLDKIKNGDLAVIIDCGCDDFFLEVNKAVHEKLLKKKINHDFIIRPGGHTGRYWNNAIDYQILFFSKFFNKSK

[9] = biological target: T6, Nitroreductase domain-containing protein (Phocaeicola dorei, UniProt B6VU18); assay: as §1; assay type: ADME; design: dose 2 uM; details: 2 µM
T6 sequence (B6VU18 whole entry): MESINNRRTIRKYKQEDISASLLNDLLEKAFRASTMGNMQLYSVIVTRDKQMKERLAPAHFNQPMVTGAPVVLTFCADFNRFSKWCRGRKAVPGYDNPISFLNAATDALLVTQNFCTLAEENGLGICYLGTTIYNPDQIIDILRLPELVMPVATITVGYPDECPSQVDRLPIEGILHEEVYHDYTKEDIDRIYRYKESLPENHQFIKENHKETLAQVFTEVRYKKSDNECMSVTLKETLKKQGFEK

GDSL-like protein = biological target: T7, GDSL-like protein (Collinsella aerofaciens, UniProt A4E8S4); assay: The drug is tested on Collinsella aerofaciens strain: ATCC25986 for biotransformation. The drug concentrations were measured before and after a 12-h incubation by liquid-chromatography-coupled mass spectrometry (LC–MS); assay type: ADME; design: dose 2 uM; details: 2 µM
T7 sequence (A4E8S4 whole entry): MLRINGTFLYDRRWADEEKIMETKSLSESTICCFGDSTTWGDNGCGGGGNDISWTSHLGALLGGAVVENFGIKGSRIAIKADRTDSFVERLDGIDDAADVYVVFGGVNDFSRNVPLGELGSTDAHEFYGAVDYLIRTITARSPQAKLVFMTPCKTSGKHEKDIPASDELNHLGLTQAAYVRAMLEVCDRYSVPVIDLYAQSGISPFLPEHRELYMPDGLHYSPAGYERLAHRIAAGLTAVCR

Compound	Bacterial Biotransformation [1]	Bacterial Biotransformation [2]	Bacterial Biotransformation [3]	Bacterial Biotransformation [4]	Bacterial Biotransformation [5]	Bacterial Biotransformation [6]	Bacterial Biotransformation [7]	Bacterial Biotransformation [8]	Bacterial Biotransformation (Esterase)	Bacterial Biotransformation [9]	Bacterial Biotransformation (GDSL-like protein)
CCCC(=O)Nc1ccc(OCC(O)CNC(C)C)c(C(C)=O)c1 (configuration not stated) [ACEBUTOLOL]	Compound NOT metabolized	Compound NOT metabolized									
C=CCc1ccccc1OCC(O)CNC(C)C (configuration not stated) [ALPRENOLOL]	Compound NOT metabolized										
CC(C)NCC(O)COc1ccc(CC(N)=O)cc1 (configuration not stated) [ATENOLOL]	Compound NOT metabolized	Compound NOT metabolized	Compound NOT metabolized								
CC(C)NCC(O)COc1ccc(CCOCC2CC2)cc1 (configuration not stated) [BETAXOLOL]		Compound NOT metabolized	Compound NOT metabolized	Compound NOT metabolized							
COc1ccccc1OCCNCC(O)COc1cccc2[nH]c3ccccc3c12 (configuration not stated) [CARVEDILOL]		Compound NOT metabolized									
O=C(O)COCCN1CCN(C(c2ccccc2)c2ccc(Cl)cc2)CC1 (configuration not stated) [CETIRIZINE]	Compound metabolized		Compound NOT metabolized	Compound metabolized							
CN/C(=N/CCSCc1nc[nH]c1C)NC#N [CIMETIDINE]	Compound NOT metabolized	Compound NOT metabolized	Compound NOT metabolized	Compound metabolized							
COC(=O)[C@H](c1ccccc1Cl)N1CCc2sccc2C1.O=S(=O)(O)O [CLOPIDOGREL BISULFATE]	Compound NOT metabolized		Compound NOT metabolized	Compound metabolized							
CN1CCN(C2=Nc3cc(Cl)ccc3Nc3ccccc32)CC1 [CLOZAPINE]	Compound NOT metabolized										
O=P1(N(CCCl)CCCl)NCCCO1 (configuration not stated) [CYCLOPHOSPHAMIDE ANHYDROUS]	Compound NOT metabolized		Compound NOT metabolized	Compound NOT metabolized							

The next lines start with the values.

Bacterial Biotransformation [1]	Bacterial Biotransformation [2]	Bacterial Biotransformation [3]	Bacterial Biotransformation [4]	Bacterial Biotransformation [5]	Bacterial Biotransformation [6]	Bacterial Biotransformation [7]	Bacterial Biotransformation [8]	Bacterial Biotransformation (Esterase)	Bacterial Biotransformation [9]	Bacterial Biotransformation (GDSL-like protein)	Compound
Compound NOT metabolized	Compound NOT metabolized	Compound NOT metabolized	Compound metabolized								Clc1cccc(Cl)c1N=C1NCCN1 [CLONIDINE]
		Compound NOT metabolized	Compound NOT metabolized								CN(C)CCC=C1c2ccccc2C=Cc2ccccc21 [CYCLOBENZAPRINE]
				Compound NOT metabolized	Compound NOT metabolized	Compound NOT metabolized	Compound NOT metabolized	Compound NOT metabolized	Compound NOT metabolized	Compound NOT metabolized	C#C[C@]1(O)CC[C@H]2[C@@H]3CCC4=Cc5oncc5C[C@]4(C)[C@H]3CC[C@@]21C [DANAZOL]
				Compound NOT metabolized			Compound NOT metabolized	Compound NOT metabolized	Compound NOT metabolized		CC(=O)OCC(=O)[C@@]12N=C(C)O[C@@H]1C[C@H]1[C@@H]3CCC4=CC(=O)C=C[C@]4(C)[C@H]3[C@@H](O)C[C@@]12C [DEFLAZACORT]
				Compound NOT metabolized	Compound metabolized	Compound metabolized	Compound NOT metabolized	Compound metabolized	Compound NOT metabolized	Compound metabolized	CC(=O)Nc1ccc(OC(C)=O)cc1 [DIACETAMATE]
				Compound NOT metabolized	Compound NOT metabolized	Compound NOT metabolized	Compound NOT metabolized	Compound NOT metabolized	Compound NOT metabolized	Compound NOT metabolized	CCN(CC)C(=O)/C(C#N)=C/c1cc(O)c(O)c([N+](=O)[O-])c1 [ENTACAPONE]
	Compound metabolized		Compound metabolized								c1ccc([C@H]2CN3CCSC3=N2)cc1 [LEVAMISOLE]
				Compound NOT metabolized	Compound NOT metabolized	Compound NOT metabolized	Compound metabolized	Compound NOT metabolized	Compound metabolized	Compound NOT metabolized	CCOC(=O)C1=C(C)NC(C)=C(C(=O)OC)C1c1cccc([N+](=O)[O-])c1 (configuration not stated) [NITRENDIPINE]
				Compound NOT metabolized	Compound metabolized	Compound metabolized	Compound NOT metabolized	Compound metabolized	Compound NOT metabolized	Compound NOT metabolized	COc1ccnc(C[S+]([O-])c2nc3ccc(OC(F)F)cc3[nH]2)c1OC (configuration not stated) [PANTOPRAZOLE]
				Compound NOT metabolized	Compound NOT metabolized	Compound NOT metabolized	Compound NOT metabolized	Compound NOT metabolized	Compound NOT metabolized	Compound NOT metabolized	Nc1ccc(/N=N/c2ccccc2)c(N)n1 [PHENAZOPYRIDINE]
				Compound NOT metabolized	Compound NOT metabolized	Compound NOT metabolized	Compound NOT metabolized	Compound NOT metabolized	Compound NOT metabolized	Compound metabolized	CC(=O)SCC(Cc1ccccc1)C(=O)NCC(=O)OCc1ccccc1 (configuration not stated) [RACECADOTRIL]
	Compound NOT metabolized										CCOc1cc(CC(=O)N[C@@H](CC(C)C)c2ccccc2N2CCCCC2)ccc1C(=O)O [REPAGLINIDE]
				Compound NOT metabolized	Compound NOT metabolized	Compound NOT metabolized	Compound NOT metabolized	Compound NOT metabolized	Compound NOT metabolized		O=C(O)c1cc(/N=N/c2ccc(S(=O)(=O)Nc3ccccn3)cc2)ccc1O [SULFASALAZINE]
